Laboratory results reported in patent US20220064689A1, “AMPHOTERIC GLYCOLIPID BIOSURFACTANT AND ITS PREPARATION METHOD” (Mikros Biochem, priority 2020, published 2022).
Where “and” joins values, the source holds several entries; their conditions need not be identical. Identical values can stand only once.

Tests used:
[1] = system: Staphylococcus aureus (ATCC 6538); experiment: Antibacterial analysis per national standard WS/T 650-2019, viable count over 28 days; assay type: cell-based; settings: 4.0% (aqueous solution of surfactant, or 4.0% sodium benzoate comparative)
Protocol: (§1) Using the protocol set out in the national standard test WS/T 650-2019 “Evaluation Method of Antibacterial and Antibacterial Effects”, the amphiphilic biosurfactant produced as described above was analysed for antibacterial effects.

[2] = system: Candida albicans (ATCC 10231); experiment: as above; assay type: cell-based; settings: 4.0% (aqueous solution of surfactant, or 4.0% sodium benzoate comparative)
Protocol: as §1

## O=C([O-])c1ccccc1.[Na+] [sodium benzoate]
[1]; Day 0
  CFU/mL Staphylococcus aureus (ATCC 6538) Day 0: 5.0 × 10^6 CFU/mL and 5.2 × 10^6 CFU/mL
[1]; Day 14
  CFU/mL Staphylococcus aureus (ATCC 6538) Day 14: 8.7 × 10^1 CFU/mL
[1]; Day 21
  CFU/mL Staphylococcus aureus (ATCC 6538) Day 21: <10 CFU/mL
[2]; Day 0
  CFU/mL Candida albicans (ATCC 10231) Day 0: 4.0 × 10^5 CFU/mL
[2]; Day 7
  CFU/mL Candida albicans (ATCC 10231) Day 7: 3.4 × 10^2 CFU/mL
[2]; Day 14
  CFU/mL Candida albicans (ATCC 10231) Day 14: 3.0 × 10^1 CFU/mL
[2]; Day 21
  CFU/mL Candida albicans (ATCC 10231) Day 21: <10 CFU/mL
[2]; Day 28
  CFU/mL Candida albicans (ATCC 10231) Day 28: <10 CFU/mL
